Measurements reported in BindingDB's records for doi:10.1016/j.bmcl.2012.05.087 (Actelion Pharmaceuticals, 2012).

test: Antagonist activity at human CRTh2 receptor in human whole blood assessed as inhibition of PGD2-induced eosinophil shape change after 10 mins by flow cytometric analysis in presence of 50% human plasma

| IC50 [µM] | Compound |
| --- | --- |
| 0.051 | COc1ccc(C(=O)N2CCc3ccccc32)cc1CSc1nc2cc(F)ccc2n1CC(=O)O |
| 0.016 | COc1ccc(C(C)=O)cc1CSc1nc2ccccc2n1CC(=O)O |
| 0.041 | CCCCNC(=O)c1ccc(OC)c(CSc2nc3cc(F)ccc3n2CC(=O)O)c1 |
